Assay [1] addresses T1, EGFR kinase (Homo sapiens, UniProt P00533).
T1 construct: purchased Sigma E-3641
In words: EGFR tyrosine kinase enzyme inhibition assay (cell free, DELFIA time resolved fluorescence). It is filed as biochemical. The note with it: for IC50 / EGFR kinase activity IC50, range in words: cell free kinase assay. As for the experimental part:
Assessment of the EGFR tyrosine kinase activity of control quinoline 1 together with quinolines 10, 13, 14, 17, 18, 24 and 25 was carried out using a cell free kinase activity inhibition assay as detailed below. BPDQ (4-N-(3-bromophenyl)quinazoline-4,6,7-triamine), a quinazoline based EGFR inhibitor was also included in this assay as a further reference standard.
The inhibitory activity of quinolines 1, 10, 13, 14, 17, 18, 24 and 25 against EGFR kinase activity was measured by a time resolved fluorescence assay (DELFIA, Perkin-Elmer Life Sciences, Boston, Mass., USA). […] The reaction proceeded at rt for 1 h and was stopped by addition of 100 mM EDTA. The enzyme reaction solution was diluted and aliquots added to 96-well ELISA streptavidin plates with shaking for 1 h. The plates were washed and phosphorylated Tyrosine was detected with Eu-labeled antiphosphotyrosine antibody (50 ng/well; PT66; PerkinElmer). After washing and enhancement steps, the plates were assessed in a Victor^3 multi-label counter (PerkinElmer) using the EGFR Europium protocol.

Assay [2] addresses T2, EGFR autophosphorylation in A431 cells (Homo sapiens, UniProt P00533).
T2 construct: highly EGFR-expressing A431 cells; endogenous in cells; host or cells: A431 human epidermoid cancer cells (ATCC)
The assay is described as follows: Inhibition of EGFR autophosphorylation in A431 cells (Western blot p-EGFR/total EGFR). It is filed as cell-based. The conditions noted are these: for IC50: 3 h drug incubation then washing with drug free medium, mean ± sem, n = 3. As for the experimental part: The ability of the compounds to be transported across cell membranes and to inhibit EGFR autophosphorylation was examined in highly EGFR-expressing A431 cells.
The cells were maintained in DMEM (Sigma-Aldrich Company Ltd, Dorset, UK) supplemented with 10% fetal bovine serum (Lonza, UK), and 2 mM L-glutamine, 100 U/ml penicillin, 100 μg/mL streptomycin and 1 μg/mL fungizone (GIBCO) in 6 well plates incubated at 37° C. in a humidified incubator with 5% CO2. The experiments were designed to assess irreversibility of EGFR inhibition by the compounds. Cells in exponential growth were incubated with quinolines 1, 10, 13, 14, 17, 18, 24 and 25 at various concentrations for 3 h. EGF (100 ng/ml) was added to the cells during the last 15 min to induce p-EGFR. The medium was removed and replaced with fresh compound-free medium for 1 h. The last step was then repeated twice. The cells were then washed with cold PBS and lysed in RIPA buffer (Invitrogen Ltd, Paisley, UK) supplemented with protease and phosphatase inhibitor cocktails (Sigma-Aldrich Company Ltd, Dorset, UK). Lysates were clarified by centrifugation. The following antibodies were used: rabbit polyclonal antibody anti-p-EGFR (Cell signalling Technology, Denver, Mass.; 1:1000) and rabbit polyclonal antibody anti-EGFR (Santa Cruz Biotechnology, Santa Cruz, Calif.; 1:1000) and mouse monoclonal antibody anti-β-actin (Abcam, UK; 1:10000) as primary antibodies. The secondary antibodies were Goat anti Rabbit IgG HRP (Santa Cruz Biotechnology Santa Cruz, Calif.; 1:2000) and Goat anti Mouse IgG HRP (Autogen Bioclear, UK; 1:2000). The same procedure was used to assess EGFR and phospho-EGFR expression in HCT116 human colon carcinoma cells.
(In general: Immunoblotting shows a protein as a band on a membrane.)

Setting [3] is: 25 μM ATP, read-out: IC50 (nM) EGFR kinase activity.

Structures can show the parent of a compound that is named as a salt. Where two headings read alike, the source gives them in different places.

T2 sequence (P00533 25-1210): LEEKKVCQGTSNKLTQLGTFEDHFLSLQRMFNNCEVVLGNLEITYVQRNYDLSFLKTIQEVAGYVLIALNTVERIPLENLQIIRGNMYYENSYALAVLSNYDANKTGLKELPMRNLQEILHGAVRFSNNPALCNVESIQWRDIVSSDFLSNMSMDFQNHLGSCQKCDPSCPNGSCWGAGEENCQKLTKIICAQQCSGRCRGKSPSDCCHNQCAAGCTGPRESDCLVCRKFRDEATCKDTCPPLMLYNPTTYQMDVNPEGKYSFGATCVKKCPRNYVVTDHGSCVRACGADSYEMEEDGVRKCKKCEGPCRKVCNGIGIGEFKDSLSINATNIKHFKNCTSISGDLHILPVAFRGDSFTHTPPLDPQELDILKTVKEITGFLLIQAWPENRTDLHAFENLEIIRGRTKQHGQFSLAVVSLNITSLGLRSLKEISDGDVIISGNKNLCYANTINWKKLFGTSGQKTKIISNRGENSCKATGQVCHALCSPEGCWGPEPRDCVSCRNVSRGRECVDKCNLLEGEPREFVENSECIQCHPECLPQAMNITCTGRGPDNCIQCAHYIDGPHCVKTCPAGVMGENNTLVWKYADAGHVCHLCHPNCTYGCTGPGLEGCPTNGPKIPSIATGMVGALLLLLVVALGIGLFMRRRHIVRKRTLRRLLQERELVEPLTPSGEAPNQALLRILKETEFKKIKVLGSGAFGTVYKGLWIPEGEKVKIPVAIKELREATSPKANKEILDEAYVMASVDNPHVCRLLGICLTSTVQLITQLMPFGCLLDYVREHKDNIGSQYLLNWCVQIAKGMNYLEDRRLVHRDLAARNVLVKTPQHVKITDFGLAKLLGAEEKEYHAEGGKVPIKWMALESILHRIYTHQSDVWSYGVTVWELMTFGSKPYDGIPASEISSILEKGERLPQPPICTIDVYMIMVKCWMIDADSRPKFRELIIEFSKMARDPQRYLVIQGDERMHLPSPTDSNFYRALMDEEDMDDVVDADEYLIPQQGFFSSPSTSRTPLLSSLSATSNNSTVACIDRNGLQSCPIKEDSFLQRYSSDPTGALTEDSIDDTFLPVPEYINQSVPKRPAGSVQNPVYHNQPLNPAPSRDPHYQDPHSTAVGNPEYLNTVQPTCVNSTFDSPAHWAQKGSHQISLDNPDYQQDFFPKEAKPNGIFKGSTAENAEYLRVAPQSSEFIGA
T1 sequence (P00533 25-1210): as above

With `Nc1cc2ncnc(Nc3cccc(Br)c3)c2cc1N` [BPDQ, 4-N-(3-bromophenyl)quinazoline-4,6,7-triamine, reference compound], in assay [1] (setting [3]), the half-maximal inhibitory concentration (IC50) (usually the point on the concentration scale where inhibition reaches its midpoint) is 0.81 ± 0.01 nM.
`CCOc1cc2ncc(C#N)c(Nc3ccc(F)c(Cl)c3)c2cc1NC(=O)/C=C/CNC` [compound 10, (E)-4-(Methylamino)-but-2-enoic acid [4-(3-chloro-4-fluorophenylamino)-3-cyano-7-ethoxy-quinoline-6-yl]amide]: the “EGFR kinase activity IC50, range in words” value in assay [1] was “sub-nanomolar”. The results for the IC50 in assay [1] (setting [3]) and in assay [2] were 0.25 ± 0.06 nM and 5.35 ± 1.52 nM, respectively. Besides, in assay [2], the “Cellular EGFR autophosphorylation inhibition, IC50 in words” value was “low nanomolar range”.
In the same order, the values of `CCOc1cc2ncc(C#N)c(Nc3ccc(F)c(Cl)c3)c2cc1NC(=O)/C=C/CN(C)CCF` [compound 13, (E)-4-[(2-Fluoroethyl)methylamino]-but-2-enoic acid [4-(3-chloro-4-fluorophenylamino)-3-cyano-7-ethoxyquinoline-6-yl]amide] are “sub-nanomolar”, 0.8 ± 0.04 nM, 23 ± 12 nM and “low nanomolar range”.
As to `CCOc1cc2ncc(C#N)c(Nc3ccc(F)c(Cl)c3)c2cc1NC(=O)/C=C/CN(C)Cc1ccc(F)cc1` [compound 14, (E)-4-[(4-Fluorobenzyl)methylamino]-but-2-enoic acid [4-(3-chloro-4-fluorophenylamino)-3-cyano-7-ethoxyquinoline-6-yl]amide], in assay [1], the “EGFR kinase activity IC50, range in words” value was “sub-nanomolar”. Moreover, in assay [1] (setting [3]), the IC50 is 0.57 ± 0.12 nM. For the same compound, in assay [2], the “Cellular EGFR autophosphorylation inhibition, IC50 in words” value is listed as “low nanomolar range” and the IC50 came out at 16.5 ± 8.38 nM.
`CCOc1cc2ncc(C#N)c(Nc3ccc(F)c(Cl)c3)c2cc1NC(=O)/C=C/CNCc1cn(CCF)nn1` [compound 17, (E)-4-{[1-(2-Fluoro-ethyl)-1H-[1,2,3]triazol-4-ylmethyl]-amino}-but-2-enoic acid [4-(3-chloro-4-fluoro-phenylamino)-3-cyano-7-ethoxy-quinolin-6-yl]-amide hydrochloride]: the “EGFR kinase activity relative to quinoline 18” value in assay [1] (17 compared with 18) is reported as “two-fold more active than 18”. The IC50 in assay [1] (setting [3]) turned out to be 1.81 ± 0.18 nM. Besides, in assay [2], the “Cellular EGFR autophosphorylation inhibition, IC50 in words” value is on record as “low nanomolar range” and inhibition was half-maximal at 22 ± 9.06 nM (IC50).
As to `CNC/C=C/C(=O)Nc1cc2c(Nc3ccc(F)c(Cl)c3)c(C#N)cnc2cc1OCCF.Cl` [compound 24, (E)-4-Methylamino-but-2-enoic acid [4-(3-chloro-4-fluorophenylamino)-3-cyano-7-(2-fluoroethoxy)-quinolin-6-yl]-amide hydrochloride], the IC50 in assay [1] (setting [3]) is 0.29 ± 0.03 nM. Moreover, in assay [2], the “Cellular EGFR autophosphorylation inhibition, IC50 in words” value is “low nanomolar range” and the IC50 turned out to be 8.12 ± 2.03 nM.
Regarding `C#CCNC/C=C/C(=O)Nc1cc2c(Nc3ccc(F)c(Cl)c3)c(C#N)cnc2cc1OCC.Cl` [compound 25, (E)-4-Prop-2-ynylaminobut-2-enoic acid [4-(3-chloro-4-fluorophenylamino)-3-cyano-7-ethoxy-quinolin-6-yl]-amide hydrochloride], the IC50 in assay [1] (read-out: EGFR kinase activity IC50) came to 0.03 nM. Moreover, in assay [2], the “Cellular EGFR autophosphorylation inhibition, IC50 in words” value is reported as “low nanomolar range” and the IC50 was found to be 60.2 ± 17.1 nM.

For the origin of these results see patent US20130116206A1, “QUINOLINE DERIVATIVES USED AS PET IMAGING AGENTS” (IMPERIAL INNOVATIONS LIMITED, priority 2009, published 2013).
